Results: ChEMBL document CHEMBL1667750, “Synthesis and biological activity of 7H-benzo[4,5]indolo[2,3-b]-quinoxaline derivatives” (Eur J Med Chem, 2011)
Active and inactive are the calls of the source. The rule behind the calls is not given here.

Legend:
Calf thymus DNA = test: Binding affinity to calf thymus DNA by ethidium bromide displacement assay; assay type: nucleic-acid assay, Bos taurus; conditions: for logKa: Bos taurus
L929 = test: Decrease in interferon inducing activity in VSV infected in mouse L929 cells at 1.1 uM; assay type: functional, cell-based
[1] = system: Vesicular stomatitis virus; test: Antiviral activity against VSV infected in mouse L929 cells assessed as protection against virus-induced cytopathic effect treated 24 hrs before viral infection at 13 uM; assay type: functional
[2] = system: Vesicular stomatitis virus; test: Antiviral activity against VSV infected in mouse L929 cells assessed as protection against virus-induced cytopathic effect treated immediately after viral infection at 12.5 uM; assay type: functional
[3] = Cytotoxicity against mouse L929 cells; assay type: cell-based
[4] = system: Vesicular stomatitis virus; test: Antiviral activity against VSV infected in mouse L929 cells assessed as protection against virus-induced cytopathic effect treated immediately after viral infection at 6.7 uM; assay type: functional
[5] = system: Vesicular stomatitis virus; test: Antiviral activity against VSV infected in mouse L929 cells assessed as protection against virus-induced cytopathic effect treated immediately after viral infection at 15 uM; assay type: functional
[6] = system: Vesicular stomatitis virus; test: Antiviral activity against VSV infected in mouse L929 cells assessed as protection against virus-induced cytopathic effect treated 24 hrs before viral infection at 30 uM; assay type: functional
[7] = system: Vesicular stomatitis virus; test: Antiviral activity against VSV infected in mouse L929 cells assessed as protection against virus-induced cytopathic effect treated 24 hrs before viral infection at 53 uM; assay type: functional
[8] = system: Vesicular stomatitis virus; test: Antiviral activity against VSV infected in mouse L929 cells assessed as protection against virus-induced cytopathic effect treated immediately after viral infection at 21.4 uM; assay type: functional
[9] = system: Vesicular stomatitis virus; test: Antiviral activity against VSV infected in mouse L929 cells assessed as protection against virus-induced cytopathic effect treated immediately after viral infection at 25 uM; assay type: functional
[10] = system: Vesicular stomatitis virus; test: Antiviral activity against VSV infected in mouse L929 cells assessed as protection against virus-induced cytopathic effect treated 24 hrs before viral infection at 3.1 uM; assay type: functional
[11] = system: Vesicular stomatitis virus; test: Antiviral activity against VSV infected in mouse L929 cells assessed as protection against virus-induced cytopathic effect treated immediately after viral infection at 6.2 uM; assay type: functional
[12] = system: Vesicular stomatitis virus; test: Antiviral activity against VSV infected in mouse L929 cells assessed as protection against virus-induced cytopathic effect treated 24 hrs before viral infection at 6.2 uM; assay type: functional
[13] = system: Vesicular stomatitis virus; test: Antiviral activity against VSV infected in mouse L929 cells assessed as protection against virus-induced cytopathic effect treated 24 hrs before viral infection at 3 uM; assay type: functional
[14] = system: Vesicular stomatitis virus; test: Antiviral activity against VSV infected in mouse L929 cells assessed as protection against virus-induced cytopathic effect treated immediately after viral infection at 21.3 uM; assay type: functional
[15] = system: Vesicular stomatitis virus; test: Antiviral activity against VSV infected in mouse L929 cells assessed as protection against virus-induced cytopathic effect treated immediately after viral infection at 50 uM; assay type: functional
[16] = system: Vesicular stomatitis virus; test: Antiviral activity against VSV infected in mouse L929 cells assessed as protection against virus-induced cytopathic effect treated immediately after viral infection at 27.5 uM; assay type: functional
[17] = system: Vesicular stomatitis virus; test: Antiviral activity against VSV infected in mouse L929 cells assessed as protection against virus-induced cytopathic effect treated 24 hrs before viral infection at 110 uM; assay type: functional
[18] = system: Vesicular stomatitis virus; test: Antiviral activity against VSV infected in mouse L929 cells assessed as protection against virus-induced cytopathic effect treated immediately after viral infection at 7.1 uM; assay type: functional
[19] = system: Vesicular stomatitis virus; test: Antiviral activity against VSV infected in mouse L929 cells assessed as protection against virus-induced cytopathic effect treated 24 hrs before viral infection at 113 uM; assay type: functional
[20] = system: Vesicular stomatitis virus; test: Antiviral activity against VSV infected in mouse L929 cells assessed as protection against virus-induced cytopathic effect treated immediately after viral infection at 5.5 uM; assay type: functional
[21] = system: Vesicular stomatitis virus; test: Antiviral activity against VSV infected in mouse L929 cells assessed as protection against virus-induced cytopathic effect treated 24 hrs before viral infection at 0.2 uM; assay type: functional

Structure (SMILES)	pIC50 (Calf thymus DNA)	logKa (Calf thymus DNA)	Activity (L929)	Emax at 12.5 µM [2]	CC50 [3]	further results
CCCN(CCC)CCn1c2ccccc2c2nc3ccccc3nc21	3.99	6.09	Active	75%		Emax at 13 µM [1]: 90%
CN1CCN(CCn2c3ccccc3c3nc4ccccc4nc32)CC1	3.77	5.87	Active	100%		Emax at 13 µM [1]: 85%
CN1CCN(CCn2c3ccc4ccccc4c3c3nc4ccccc4nc32)CC1	4.84	6.94	Active		21.4 µM	Emax at 13 µM [1]: 17%; Emax at 6.7 µM [4]: 80%
CN(C)CCn1c2ccc3ccccc3c2c2nc3ccccc3nc21	4.84	6.94	Active		49.9 µM	Emax at 15 µM [5]: 45%; Emax at 30 µM [6]: 21%
CC1CCN(CCn2c3ccc4ccccc4c3c3nc4ccccc4nc32)CC1	4.48	6.58	Active		> 214 µM	Emax at 53 µM [7]: 30%; Emax at 21.4 µM [8]: 51%
CN(C)CCn1c2ccccc2c2nc3ccccc3nc21	3.83	5.93	Active			Emax at 25 µM [9]: 100%; Emax at 3.1 µM [10]: 75%
CC1CCCCN1CCn1c2ccc3ccccc3c2c2nc3ccccc3nc21 (stereo not drawn)	4.73	6.83	Active		113 µM	Emax at 6.7 µM [4]: 50%; Emax at 53 µM [7]: 20%
CC1CCCCN1CCn1c2ccccc2c2nc3ccccc3nc21 (stereo not drawn)	4.08	6.19	Active			Emax at 6.2 µM [11]: 77%; Emax at 6.2 µM [12]: 90%
CC1CCN(CCn2c3ccccc3c3nc4ccccc4nc32)CC1	3.88	5.98	Active	50%		Emax at 13 µM [1]: 90%
CCN(CC)CCn1c2ccccc2c2nc3ccccc3nc21	3.97	6.07	Active	100%		Emax at 6.2 µM [12]: 90%
CCCN(CCC)CCn1c2ccc3ccccc3c2c2nc3ccccc3nc21	4.8	6.91	Active		> 42.6 µM	Emax at 3 µM [13]: 16%; Emax at 21.3 µM [14]: 48%
c1ccc2nc3c(nc2c1)c1ccccc1n3CCN1CCOCC1	3.78	5.89	Active		1070 µM	Emax at 13 µM [1]: 85%; Emax at 6.2 µM [11]: 30%
CCCCN(C)CCn1c2ccccc2c2nc3ccccc3nc21	3.82	5.93	Active			Emax at 25 µM [9]: 80%; Emax at 3.1 µM [10]: 75%
c1ccc2nc3c(nc2c1)c1ccccc1n3CCN1CCCCCC1	4.06	6.16	Active			Emax at 50 µM [15]: 100%; Emax at 6.2 µM [12]: 90%
CCCCN(CC)CCn1c2ccccc2c2nc3ccccc3nc21	3.91	6.01	Active	50%		Emax at 3.1 µM [10]: 50%
c1ccc2c(c1)ccc1c2c2nc3ccccc3nc2n1CCN1CCCCC1	4.51	6.61	Active		> 221 µM	Emax at 27.5 µM [16]: 55%; Emax at 110 µM [17]: 20%
c1ccc2nc3c(nc2c1)c1ccccc1n3CCN1CCCC1	3.95	6.05	Active	100%		Emax at 3.1 µM [10]: 85%
CCN(CC)CCn1c2ccc3ccccc3c2c2nc3ccccc3nc21	4.69	6.79	Active		180 µM	Emax at 7.1 µM [18]: 56%; Emax at 113 µM [19]: 14%
c1ccc2nc3c(nc2c1)c1ccccc1n3CCN1CCCCC1	3.91	6.01	Active			Emax at 6.2 µM [11]: 75%; Emax at 3.1 µM [10]: 90%
c1ccc2c(c1)ccc1c2c2nc3ccccc3nc2n1CCN1CCOCC1	4.84	6.94	Active			Emax at 5.5 µM [20]: 50%; Emax at 0.2 µM [21]: 10%
